This passage reports residual activity and % residual kinase activity results from ChEMBL document CHEMBL4507319 (2021).

In assay [1] the target is Homeodomain-interacting protein kinase 3 (Homo sapiens) (UniProt Q9H422). The settings on record: Compound concentration 1000.0 nM.
Assay [2] has as its target Calcium/calmodulin-dependent protein kinase kinase 1 (Homo sapiens) (UniProt Q8N5S9). The experiment in a line: CaMKK1(h) Eurofins kinase panel. The settings on record: Compound concentration 1.0 uM.
Assay [3] has as its target Protein kinase C eta type (Homo sapiens) (UniProt P24723). The settings on record: Compound concentration 1000.0 nM.
In assay [4] the target is RAF proto-oncogene serine/threonine-protein kinase (Homo sapiens) (UniProt P04049). The experiment in a line: c-RAF(h) Eurofins kinase panel. The settings on record: Compound concentration 1.0 uM.
For assay [5], the target named is Maternal embryonic leucine zipper kinase (Homo sapiens) (UniProt Q14680). The following applies: Compound concentration 1000.0 nM.
Assay [6] has as its target Tyrosine-protein kinase BTK (Homo sapiens) (UniProt Q06187). The experiment in a line: BTK(h) Eurofins kinase panel. The following applies: Compound concentration 1.0 uM.
Assay [7] addresses Ribosomal protein S6 kinase alpha-2 (Homo sapiens, UniProt Q15349). The following applies: Compound concentration 1000.0 nM.
In assay [8] the test system is Mast/stem cell growth factor receptor Kit (Homo sapiens), P10721 [A829P]. The following applies: Compound concentration 1000.0 nM.
Assay [9] addresses T1, Protein kinase C epsilon type (Homo sapiens) (UniProt Q02156).
T1 sequence (whole entry): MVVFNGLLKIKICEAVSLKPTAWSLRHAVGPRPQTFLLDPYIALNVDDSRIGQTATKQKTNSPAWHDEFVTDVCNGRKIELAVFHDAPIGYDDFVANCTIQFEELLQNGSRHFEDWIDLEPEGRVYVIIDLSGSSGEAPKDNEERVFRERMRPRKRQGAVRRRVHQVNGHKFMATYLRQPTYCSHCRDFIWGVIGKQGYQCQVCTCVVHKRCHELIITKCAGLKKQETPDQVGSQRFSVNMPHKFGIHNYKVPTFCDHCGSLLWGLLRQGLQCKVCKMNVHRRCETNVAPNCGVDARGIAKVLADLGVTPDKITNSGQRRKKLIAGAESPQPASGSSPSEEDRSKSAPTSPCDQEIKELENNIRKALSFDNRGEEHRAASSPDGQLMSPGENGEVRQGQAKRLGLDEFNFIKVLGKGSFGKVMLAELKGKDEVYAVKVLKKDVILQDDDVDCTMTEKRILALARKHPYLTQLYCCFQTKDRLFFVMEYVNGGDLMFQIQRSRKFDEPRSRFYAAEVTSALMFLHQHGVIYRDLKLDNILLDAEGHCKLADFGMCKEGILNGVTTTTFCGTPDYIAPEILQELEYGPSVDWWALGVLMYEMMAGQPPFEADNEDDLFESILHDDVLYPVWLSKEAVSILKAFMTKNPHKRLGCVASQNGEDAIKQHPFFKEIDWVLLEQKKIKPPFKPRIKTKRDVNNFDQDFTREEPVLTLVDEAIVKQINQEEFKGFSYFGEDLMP
The settings on record: Compound concentration 1000.0 nM.

The target of assay [10] is Tyrosine-protein kinase Fer (Homo sapiens) (UniProt P16591). The settings on record: Compound concentration 1000.0 nM.
In assay [11] the target is Tyrosine-protein kinase receptor Tie-1 (Homo sapiens) (UniProt P35590). The following applies: Compound concentration 1000.0 nM.
The target of assay [12] is Tyrosine-protein kinase Fer (Homo sapiens) (UniProt P16591). The experiment in a line: Fer(h) Eurofins kinase panel. The following applies: Compound concentration 1.0 uM.
Assay [13] deals with Calcium/calmodulin-dependent protein kinase type II subunit gamma (Homo sapiens) (UniProt Q13555). The following applies: Compound concentration 1000.0 nM.
For assay [14], the target named is T2, cGMP-dependent protein kinase 1 (Homo sapiens) (UniProt Q13976).
T2 sequence (whole entry): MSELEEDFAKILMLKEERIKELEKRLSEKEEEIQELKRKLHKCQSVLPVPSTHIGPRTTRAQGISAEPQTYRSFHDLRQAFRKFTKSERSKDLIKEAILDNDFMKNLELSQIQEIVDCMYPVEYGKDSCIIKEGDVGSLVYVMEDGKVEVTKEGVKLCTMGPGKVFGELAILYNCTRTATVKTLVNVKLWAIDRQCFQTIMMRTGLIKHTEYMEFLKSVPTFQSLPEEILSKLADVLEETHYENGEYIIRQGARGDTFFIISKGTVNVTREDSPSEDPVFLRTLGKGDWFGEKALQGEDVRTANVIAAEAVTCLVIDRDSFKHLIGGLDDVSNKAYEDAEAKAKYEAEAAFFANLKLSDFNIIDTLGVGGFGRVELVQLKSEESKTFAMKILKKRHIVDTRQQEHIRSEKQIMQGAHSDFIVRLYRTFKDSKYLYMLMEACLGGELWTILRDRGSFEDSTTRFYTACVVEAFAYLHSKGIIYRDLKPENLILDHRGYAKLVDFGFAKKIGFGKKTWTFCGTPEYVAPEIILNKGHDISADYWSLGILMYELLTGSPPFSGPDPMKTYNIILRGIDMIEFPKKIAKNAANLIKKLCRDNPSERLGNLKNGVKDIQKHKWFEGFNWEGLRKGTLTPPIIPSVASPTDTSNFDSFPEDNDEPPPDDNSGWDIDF
The settings on record: Compound concentration 1000.0 nM.

Assay [15] has as its system Receptor-type tyrosine-protein kinase FLT3 (Homo sapiens), P36888 [UNDEFINED MUTATION]. The following applies: Compound concentration 1000.0 nM.
Assay [16] has as its target T3, Serine/threonine-protein kinase 3 (Homo sapiens) (UniProt Q13188).
T3 sequence (whole entry): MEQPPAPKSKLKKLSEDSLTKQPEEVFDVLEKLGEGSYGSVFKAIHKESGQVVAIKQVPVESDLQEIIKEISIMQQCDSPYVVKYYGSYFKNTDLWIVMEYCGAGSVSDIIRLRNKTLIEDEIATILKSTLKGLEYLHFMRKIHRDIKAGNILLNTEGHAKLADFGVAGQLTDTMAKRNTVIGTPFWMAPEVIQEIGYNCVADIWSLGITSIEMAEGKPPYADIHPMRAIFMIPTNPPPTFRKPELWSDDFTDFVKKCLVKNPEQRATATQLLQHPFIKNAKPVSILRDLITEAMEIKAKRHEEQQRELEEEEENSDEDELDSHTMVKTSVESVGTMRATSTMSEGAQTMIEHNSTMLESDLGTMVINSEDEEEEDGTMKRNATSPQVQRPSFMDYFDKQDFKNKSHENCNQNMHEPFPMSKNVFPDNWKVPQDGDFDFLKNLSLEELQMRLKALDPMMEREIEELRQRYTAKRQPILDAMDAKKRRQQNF
The settings on record: Compound concentration 1000.0 nM.

Assay [17] concerns the target Leukocyte tyrosine kinase receptor (Homo sapiens) (UniProt P29376). The experiment in a line: LTK(h) Eurofins kinase panel. The following applies: Compound concentration 1.0 uM.

Structures are written as SMILES.

Tyrosine-protein kinase Fer (Homo sapiens), sequence (P16591 whole entry, looked up): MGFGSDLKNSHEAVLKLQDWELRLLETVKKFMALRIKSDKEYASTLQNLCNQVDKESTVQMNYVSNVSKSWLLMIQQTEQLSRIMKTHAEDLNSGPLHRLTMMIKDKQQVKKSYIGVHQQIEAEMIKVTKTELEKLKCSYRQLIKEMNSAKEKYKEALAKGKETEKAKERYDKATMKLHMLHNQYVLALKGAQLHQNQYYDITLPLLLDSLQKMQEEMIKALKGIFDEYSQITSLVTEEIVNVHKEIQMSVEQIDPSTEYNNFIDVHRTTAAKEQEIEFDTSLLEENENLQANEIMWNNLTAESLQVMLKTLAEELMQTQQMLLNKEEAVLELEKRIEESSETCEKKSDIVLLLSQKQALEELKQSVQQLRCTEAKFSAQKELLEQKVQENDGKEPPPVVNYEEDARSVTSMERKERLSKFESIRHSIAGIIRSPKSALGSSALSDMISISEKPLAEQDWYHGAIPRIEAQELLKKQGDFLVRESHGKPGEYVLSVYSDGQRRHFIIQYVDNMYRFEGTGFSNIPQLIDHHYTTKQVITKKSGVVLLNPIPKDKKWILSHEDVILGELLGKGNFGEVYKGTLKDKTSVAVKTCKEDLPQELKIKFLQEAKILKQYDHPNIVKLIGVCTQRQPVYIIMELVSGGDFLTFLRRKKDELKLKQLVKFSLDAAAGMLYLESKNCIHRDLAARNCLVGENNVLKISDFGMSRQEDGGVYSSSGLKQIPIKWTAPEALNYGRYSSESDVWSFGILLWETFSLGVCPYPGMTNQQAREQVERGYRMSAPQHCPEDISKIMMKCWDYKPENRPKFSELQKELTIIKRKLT
Tyrosine-protein kinase receptor Tie-1 (Homo sapiens), sequence (P35590 whole entry): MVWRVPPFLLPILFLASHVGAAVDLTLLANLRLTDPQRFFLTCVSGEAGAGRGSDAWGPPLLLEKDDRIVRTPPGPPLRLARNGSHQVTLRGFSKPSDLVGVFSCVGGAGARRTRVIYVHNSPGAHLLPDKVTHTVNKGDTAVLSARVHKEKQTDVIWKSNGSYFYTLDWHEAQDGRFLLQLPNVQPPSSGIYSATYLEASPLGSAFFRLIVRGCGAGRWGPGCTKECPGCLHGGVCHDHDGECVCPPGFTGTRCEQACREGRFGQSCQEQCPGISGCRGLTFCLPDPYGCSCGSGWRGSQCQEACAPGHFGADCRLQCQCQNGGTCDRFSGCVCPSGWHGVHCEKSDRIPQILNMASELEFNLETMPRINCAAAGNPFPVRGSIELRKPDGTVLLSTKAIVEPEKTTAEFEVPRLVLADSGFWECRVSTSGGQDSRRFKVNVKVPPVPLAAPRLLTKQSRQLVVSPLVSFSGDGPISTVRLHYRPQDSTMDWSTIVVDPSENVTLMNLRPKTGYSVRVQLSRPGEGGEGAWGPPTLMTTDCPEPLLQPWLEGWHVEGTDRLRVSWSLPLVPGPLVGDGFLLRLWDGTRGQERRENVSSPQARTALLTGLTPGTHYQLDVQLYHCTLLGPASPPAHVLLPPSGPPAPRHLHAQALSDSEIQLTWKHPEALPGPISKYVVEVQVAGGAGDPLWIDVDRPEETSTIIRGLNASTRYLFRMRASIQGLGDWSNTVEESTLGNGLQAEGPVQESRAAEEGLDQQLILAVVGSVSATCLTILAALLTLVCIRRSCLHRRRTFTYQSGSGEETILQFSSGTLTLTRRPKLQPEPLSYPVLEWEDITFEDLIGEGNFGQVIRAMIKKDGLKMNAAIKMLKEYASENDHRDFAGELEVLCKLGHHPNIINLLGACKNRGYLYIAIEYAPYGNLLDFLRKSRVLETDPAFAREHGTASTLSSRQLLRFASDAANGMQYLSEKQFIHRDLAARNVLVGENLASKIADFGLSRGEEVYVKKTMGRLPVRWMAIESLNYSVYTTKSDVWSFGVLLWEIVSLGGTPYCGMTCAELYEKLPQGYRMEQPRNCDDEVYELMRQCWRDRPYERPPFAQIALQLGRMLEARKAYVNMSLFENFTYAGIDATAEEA
Ribosomal protein S6 kinase alpha-2, sequence (Q15349 whole entry): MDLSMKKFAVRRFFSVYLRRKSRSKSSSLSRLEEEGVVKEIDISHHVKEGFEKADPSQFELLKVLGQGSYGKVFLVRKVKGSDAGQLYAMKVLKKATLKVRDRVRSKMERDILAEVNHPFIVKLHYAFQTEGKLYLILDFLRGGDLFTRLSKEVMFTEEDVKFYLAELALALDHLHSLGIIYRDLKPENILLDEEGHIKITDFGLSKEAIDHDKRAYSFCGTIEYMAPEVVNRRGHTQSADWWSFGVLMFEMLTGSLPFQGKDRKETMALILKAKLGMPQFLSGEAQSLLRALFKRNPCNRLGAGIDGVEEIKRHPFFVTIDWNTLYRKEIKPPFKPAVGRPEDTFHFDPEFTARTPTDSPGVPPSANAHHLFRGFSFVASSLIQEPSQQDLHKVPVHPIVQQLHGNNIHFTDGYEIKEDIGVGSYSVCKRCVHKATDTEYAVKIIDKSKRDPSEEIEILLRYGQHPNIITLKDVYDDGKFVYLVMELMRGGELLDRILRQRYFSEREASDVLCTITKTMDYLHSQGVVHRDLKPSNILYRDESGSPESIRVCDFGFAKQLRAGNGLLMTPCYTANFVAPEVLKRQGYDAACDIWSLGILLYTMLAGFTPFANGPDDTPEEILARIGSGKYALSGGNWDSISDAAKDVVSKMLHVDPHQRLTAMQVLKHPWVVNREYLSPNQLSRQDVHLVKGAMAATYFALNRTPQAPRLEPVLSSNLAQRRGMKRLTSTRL
Receptor-type tyrosine-protein kinase FLT3 (Homo sapiens), P36888 [UNDEFINED MUTATION], sequence (P36888 whole entry, looked up, change not shown): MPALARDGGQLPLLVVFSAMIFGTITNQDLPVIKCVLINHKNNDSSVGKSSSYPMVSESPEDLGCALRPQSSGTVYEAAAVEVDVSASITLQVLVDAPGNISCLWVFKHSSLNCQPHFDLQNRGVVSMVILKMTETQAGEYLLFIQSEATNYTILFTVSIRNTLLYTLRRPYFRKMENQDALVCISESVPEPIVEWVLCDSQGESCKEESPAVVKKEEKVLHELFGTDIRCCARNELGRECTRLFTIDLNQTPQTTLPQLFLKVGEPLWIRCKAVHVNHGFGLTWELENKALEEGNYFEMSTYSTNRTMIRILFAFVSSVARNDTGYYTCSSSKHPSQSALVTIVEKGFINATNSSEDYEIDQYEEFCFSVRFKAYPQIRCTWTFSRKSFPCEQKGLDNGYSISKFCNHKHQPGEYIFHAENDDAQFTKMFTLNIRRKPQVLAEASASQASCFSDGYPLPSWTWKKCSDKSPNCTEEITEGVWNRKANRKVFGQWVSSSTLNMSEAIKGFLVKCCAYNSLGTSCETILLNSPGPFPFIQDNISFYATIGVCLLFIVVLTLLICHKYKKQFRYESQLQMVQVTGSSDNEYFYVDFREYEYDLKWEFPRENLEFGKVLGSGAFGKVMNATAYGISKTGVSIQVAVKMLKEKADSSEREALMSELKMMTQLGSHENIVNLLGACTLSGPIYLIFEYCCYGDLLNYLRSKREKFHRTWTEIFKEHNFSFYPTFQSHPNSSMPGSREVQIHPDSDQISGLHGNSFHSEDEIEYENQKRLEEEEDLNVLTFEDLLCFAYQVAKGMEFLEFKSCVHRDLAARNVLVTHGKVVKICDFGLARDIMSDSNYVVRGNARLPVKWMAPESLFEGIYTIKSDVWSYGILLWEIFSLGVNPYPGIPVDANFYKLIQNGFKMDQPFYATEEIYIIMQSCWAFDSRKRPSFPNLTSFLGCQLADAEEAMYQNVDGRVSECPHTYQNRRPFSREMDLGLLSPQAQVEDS
Protein kinase C eta type (Homo sapiens), sequence (P24723 whole entry): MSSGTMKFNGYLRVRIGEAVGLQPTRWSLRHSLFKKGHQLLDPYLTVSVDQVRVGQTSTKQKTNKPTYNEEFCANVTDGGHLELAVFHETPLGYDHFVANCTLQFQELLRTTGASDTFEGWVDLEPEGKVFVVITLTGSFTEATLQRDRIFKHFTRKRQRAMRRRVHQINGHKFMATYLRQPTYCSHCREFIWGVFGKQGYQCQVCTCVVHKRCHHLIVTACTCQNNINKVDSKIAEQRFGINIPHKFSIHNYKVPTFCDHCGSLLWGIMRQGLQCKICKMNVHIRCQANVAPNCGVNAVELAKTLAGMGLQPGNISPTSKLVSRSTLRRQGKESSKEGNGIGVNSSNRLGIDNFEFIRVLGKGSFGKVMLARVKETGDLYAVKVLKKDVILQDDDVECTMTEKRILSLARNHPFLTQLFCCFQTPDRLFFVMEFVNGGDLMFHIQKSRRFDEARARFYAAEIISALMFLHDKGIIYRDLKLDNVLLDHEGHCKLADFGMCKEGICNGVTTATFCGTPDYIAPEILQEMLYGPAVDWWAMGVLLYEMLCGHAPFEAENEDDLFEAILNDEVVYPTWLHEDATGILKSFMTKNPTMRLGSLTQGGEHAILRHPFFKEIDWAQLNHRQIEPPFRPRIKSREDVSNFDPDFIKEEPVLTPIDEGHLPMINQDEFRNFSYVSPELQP
Calcium/calmodulin-dependent protein kinase type II subunit gamma (Homo sapiens), sequence (Q13555 whole entry): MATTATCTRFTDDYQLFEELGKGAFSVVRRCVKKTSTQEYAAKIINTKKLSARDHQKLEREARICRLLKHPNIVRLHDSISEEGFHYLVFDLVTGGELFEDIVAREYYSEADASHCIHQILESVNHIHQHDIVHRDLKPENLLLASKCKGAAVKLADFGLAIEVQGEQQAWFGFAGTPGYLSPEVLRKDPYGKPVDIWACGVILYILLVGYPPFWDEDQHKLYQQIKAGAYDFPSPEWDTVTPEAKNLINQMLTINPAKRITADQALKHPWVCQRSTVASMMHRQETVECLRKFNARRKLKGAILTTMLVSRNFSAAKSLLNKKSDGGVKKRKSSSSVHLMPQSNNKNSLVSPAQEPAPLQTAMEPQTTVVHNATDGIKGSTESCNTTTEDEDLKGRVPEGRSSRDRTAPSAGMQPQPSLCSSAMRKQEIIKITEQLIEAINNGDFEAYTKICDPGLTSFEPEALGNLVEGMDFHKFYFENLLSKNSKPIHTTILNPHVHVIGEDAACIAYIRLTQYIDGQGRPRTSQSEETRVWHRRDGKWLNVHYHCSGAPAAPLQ

With `CCc1ccccc1C(=O)Nc1n[nH]c2c(C)c(F)c(C3C(C#N)=C(C)N(C)C(C)=C3C#N)cc12` [BAY-3827], the residual activity in [1] is 100%; in assay [3], 32%; in assay [5] it was 43%; in [7], 100%; in [8], 100%; in [9], 19%. Also, the residual activity in [10] is 90%; in assay [11], 100%; in assay [13], 79%; in assay [14], 100%; in [15], 11%; in assay [16], 80%. The % residual kinase activity in [2] is 95%; in assay [4], 99%; in [6], 96%; in assay [12] it was 100%; in [17], 100%.

As for `CC1=C(C#N)C(c2ccc3c(c2)c(NC(=O)c2ccccc2C)nn3C)C(C#N)=C(C)N1` [BAY-974], the residual activity in assay [1] was 73%; in [3], 94%; in assay [5] it was 81%; in [7], 94%; in [8], 64%; in assay [9], 85%. The residual activity in assay [10] is 88%; in assay [11], 94%; in assay [13] it was 100%; in [14] it was 100%; in [15], 96%; in [16], 100%.

Broadly, the residual activity is what remains of the control signal, in per cent.
